Reference: the kinase profiling compilation of Christmann-Franck et al. (2016)

What was measured:
Assay in all cases: radiometric filter-binding kinase assay
MAPK14 (human) = MAPK14 (human) (UniProt Q16539)
LCK (mouse) = conditions: accession and sequence are those of the human protein
FGFR1 (human) = FGFR1 (human) (UniProt P11362)
MAPKAPK5 (human) = MAPKAPK5 (human) (UniProt Q8IW41)
ROCK2 (rat) = conditions: accession and sequence are those of the human protein
FLT1 (human) = FLT1 (human) (UniProt P17948)
MINK1 (human) = MINK1 (human) (UniProt Q8N4C8)
SRC (human) = SRC (human) (UniProt P12931)
SRC (human), sequence (P12931 whole entry, looked up): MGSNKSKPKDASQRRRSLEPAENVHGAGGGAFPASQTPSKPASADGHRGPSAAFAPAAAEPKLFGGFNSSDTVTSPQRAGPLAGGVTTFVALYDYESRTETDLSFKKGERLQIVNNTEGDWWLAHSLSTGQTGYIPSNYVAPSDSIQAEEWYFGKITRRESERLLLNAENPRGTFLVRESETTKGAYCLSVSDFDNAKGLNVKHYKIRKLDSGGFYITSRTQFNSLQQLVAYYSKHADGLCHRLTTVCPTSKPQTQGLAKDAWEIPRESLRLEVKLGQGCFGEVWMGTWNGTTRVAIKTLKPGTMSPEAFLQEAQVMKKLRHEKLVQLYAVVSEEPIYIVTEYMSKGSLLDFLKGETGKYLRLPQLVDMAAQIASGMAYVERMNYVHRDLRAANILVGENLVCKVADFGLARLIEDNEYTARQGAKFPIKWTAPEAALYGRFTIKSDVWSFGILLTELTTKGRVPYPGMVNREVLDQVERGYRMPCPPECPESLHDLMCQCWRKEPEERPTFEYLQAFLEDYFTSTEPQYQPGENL

GSK3B (human) = GSK3B (human) (UniProt P49841)
GSK3B (human), sequence (P49841 whole entry, looked up): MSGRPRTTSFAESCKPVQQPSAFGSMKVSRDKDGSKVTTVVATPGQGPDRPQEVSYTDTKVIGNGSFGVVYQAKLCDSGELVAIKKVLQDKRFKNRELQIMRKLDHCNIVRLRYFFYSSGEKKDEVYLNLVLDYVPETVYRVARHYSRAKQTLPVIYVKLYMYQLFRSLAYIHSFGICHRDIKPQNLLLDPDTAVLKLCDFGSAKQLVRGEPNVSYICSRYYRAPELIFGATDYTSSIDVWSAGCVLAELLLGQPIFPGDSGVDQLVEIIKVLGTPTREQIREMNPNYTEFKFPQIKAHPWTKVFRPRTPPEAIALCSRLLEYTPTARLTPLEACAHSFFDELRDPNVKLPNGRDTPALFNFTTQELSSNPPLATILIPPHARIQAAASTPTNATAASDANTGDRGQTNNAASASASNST

INSR (human) = INSR (human) (UniProt P06213)
CSK (human) = CSK (human) (UniProt P41240)
CAMKK2 (human) = CAMKK2 (human) (UniProt Q96RR4)
CAMKK2 (human), sequence (Q96RR4 whole entry, looked up): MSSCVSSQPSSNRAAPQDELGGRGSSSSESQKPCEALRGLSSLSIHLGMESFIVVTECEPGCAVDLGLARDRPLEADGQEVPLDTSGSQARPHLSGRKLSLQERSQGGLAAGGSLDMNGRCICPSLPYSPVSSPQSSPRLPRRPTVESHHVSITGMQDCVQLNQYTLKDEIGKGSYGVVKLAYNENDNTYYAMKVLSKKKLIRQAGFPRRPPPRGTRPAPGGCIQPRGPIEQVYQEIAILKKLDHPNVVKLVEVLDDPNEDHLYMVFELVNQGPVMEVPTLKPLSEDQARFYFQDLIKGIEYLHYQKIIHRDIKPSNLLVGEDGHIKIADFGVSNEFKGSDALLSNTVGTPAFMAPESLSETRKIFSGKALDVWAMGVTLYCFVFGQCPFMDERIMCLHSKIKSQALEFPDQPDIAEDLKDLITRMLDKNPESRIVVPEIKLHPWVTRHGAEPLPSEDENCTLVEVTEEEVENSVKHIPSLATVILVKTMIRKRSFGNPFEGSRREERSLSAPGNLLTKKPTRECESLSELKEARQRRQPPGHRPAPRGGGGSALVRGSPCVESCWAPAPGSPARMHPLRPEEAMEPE

NTRK1 (human) = NTRK1 (human) (UniProt P04629)
EPHA2 (human) = EPHA2 (human) (UniProt P29317)
MAPK15 (human) = MAPK15 (human) (UniProt Q8TD08)
MAPK15 (human), sequence (Q8TD08 whole entry, looked up): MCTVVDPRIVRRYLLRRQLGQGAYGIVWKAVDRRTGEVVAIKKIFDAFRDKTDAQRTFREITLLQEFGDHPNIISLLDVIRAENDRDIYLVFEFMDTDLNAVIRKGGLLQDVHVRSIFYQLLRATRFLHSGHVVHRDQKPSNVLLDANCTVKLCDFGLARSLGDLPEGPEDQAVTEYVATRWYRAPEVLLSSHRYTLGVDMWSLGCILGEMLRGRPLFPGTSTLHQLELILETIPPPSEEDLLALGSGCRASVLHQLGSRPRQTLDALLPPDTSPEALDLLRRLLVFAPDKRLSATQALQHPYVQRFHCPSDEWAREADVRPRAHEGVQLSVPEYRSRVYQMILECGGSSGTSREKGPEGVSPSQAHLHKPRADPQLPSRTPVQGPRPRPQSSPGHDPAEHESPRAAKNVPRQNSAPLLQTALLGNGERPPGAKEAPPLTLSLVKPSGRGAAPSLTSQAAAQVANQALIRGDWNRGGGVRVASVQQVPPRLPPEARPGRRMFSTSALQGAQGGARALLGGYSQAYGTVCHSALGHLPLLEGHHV

IRAK4 (human) = IRAK4 (human) (UniProt Q9NWZ3)
MAPK11 (human) = MAPK11 (human) (UniProt Q15759)
MAPK11 (human), sequence (Q15759 whole entry, looked up): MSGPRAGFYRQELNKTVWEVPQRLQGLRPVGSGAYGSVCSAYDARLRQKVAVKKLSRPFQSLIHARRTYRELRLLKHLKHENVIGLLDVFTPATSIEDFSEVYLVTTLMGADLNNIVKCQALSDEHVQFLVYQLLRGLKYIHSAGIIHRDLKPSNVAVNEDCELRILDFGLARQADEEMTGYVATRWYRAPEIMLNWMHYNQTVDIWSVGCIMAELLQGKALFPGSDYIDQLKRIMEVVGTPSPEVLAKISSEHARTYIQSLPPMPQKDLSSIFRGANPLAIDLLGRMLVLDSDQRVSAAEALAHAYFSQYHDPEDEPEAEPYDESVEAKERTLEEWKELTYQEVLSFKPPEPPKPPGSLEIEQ

RIPK2 (human) = RIPK2 (human) (UniProt O43353)
DYRK3 (human) = DYRK3 (human) (UniProt O43781)
HIPK3 (human) = HIPK3 (human) (UniProt Q9H422)
CSNK1D (human) = CSNK1D (human) (UniProt P48730)
CSNK1D (human), sequence (P48730 whole entry, looked up): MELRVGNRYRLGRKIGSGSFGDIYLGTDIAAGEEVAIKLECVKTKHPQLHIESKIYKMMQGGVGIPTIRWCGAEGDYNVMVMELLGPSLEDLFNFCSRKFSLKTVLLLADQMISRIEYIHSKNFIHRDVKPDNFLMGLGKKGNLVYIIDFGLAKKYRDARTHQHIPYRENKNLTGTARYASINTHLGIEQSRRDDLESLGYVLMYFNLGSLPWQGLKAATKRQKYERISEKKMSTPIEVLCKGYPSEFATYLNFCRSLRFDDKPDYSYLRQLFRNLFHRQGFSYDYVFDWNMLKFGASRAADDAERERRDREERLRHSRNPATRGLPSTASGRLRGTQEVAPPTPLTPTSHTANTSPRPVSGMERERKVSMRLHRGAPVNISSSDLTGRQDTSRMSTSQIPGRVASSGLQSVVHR

MARK1 (human) = MARK1 (human) (UniProt Q9P0L2)
RPS6KA3 KD1 KD2 (human) = RPS6KA3 KD1 KD2 (human) (UniProt P51812)
RPS6KA3 KD1 KD2 (human), sequence (P51812 whole entry, looked up): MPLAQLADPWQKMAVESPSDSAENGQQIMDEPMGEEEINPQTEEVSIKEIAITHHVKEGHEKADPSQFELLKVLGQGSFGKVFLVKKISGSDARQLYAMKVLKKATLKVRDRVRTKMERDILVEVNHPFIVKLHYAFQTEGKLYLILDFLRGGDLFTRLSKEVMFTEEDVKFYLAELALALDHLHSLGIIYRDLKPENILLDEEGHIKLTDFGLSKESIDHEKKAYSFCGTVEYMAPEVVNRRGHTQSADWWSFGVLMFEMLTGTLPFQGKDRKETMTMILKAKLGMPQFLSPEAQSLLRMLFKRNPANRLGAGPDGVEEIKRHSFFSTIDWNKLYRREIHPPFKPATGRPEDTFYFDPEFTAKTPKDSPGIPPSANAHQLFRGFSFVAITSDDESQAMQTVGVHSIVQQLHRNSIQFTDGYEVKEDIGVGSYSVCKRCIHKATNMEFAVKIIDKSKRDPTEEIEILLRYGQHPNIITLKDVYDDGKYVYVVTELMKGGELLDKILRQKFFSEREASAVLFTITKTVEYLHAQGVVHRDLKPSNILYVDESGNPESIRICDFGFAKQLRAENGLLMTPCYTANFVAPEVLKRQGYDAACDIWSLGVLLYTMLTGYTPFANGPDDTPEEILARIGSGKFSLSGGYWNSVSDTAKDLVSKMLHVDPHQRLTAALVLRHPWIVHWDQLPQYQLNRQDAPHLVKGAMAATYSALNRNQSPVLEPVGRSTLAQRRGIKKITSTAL

MAP3K1 (human) = MAP3K1 (human) (UniProt Q13233)
[1] = tested on: AKT2 (human), P31751 [S474D]
MAP3K7 TAB1 (human) = MAP3K7 TAB1 (human) (UniProt Q15750+O43318); conditions: compound 10.0 µM
JAK2 JH1 JH2 (human) = JAK2 JH1 JH2 (human) (UniProt O60674)
[2] = molecular target: STK11 CAB39 STRADA (human) (UniProt Q9Y376+Q7RTN6+Q15831)
BRSK1 (human) = BRSK1 (human) (UniProt Q8TDC3)
IGF1R (human) = IGF1R (human) (UniProt P08069)
HIPK1 (human) = HIPK1 (human) (UniProt Q86Z02)
MELK (human) = MELK (human) (UniProt Q14680)
PRKCZ (human) = PRKCZ (human) (UniProt Q05513)
PRKCZ (human), sequence (Q05513 whole entry, looked up): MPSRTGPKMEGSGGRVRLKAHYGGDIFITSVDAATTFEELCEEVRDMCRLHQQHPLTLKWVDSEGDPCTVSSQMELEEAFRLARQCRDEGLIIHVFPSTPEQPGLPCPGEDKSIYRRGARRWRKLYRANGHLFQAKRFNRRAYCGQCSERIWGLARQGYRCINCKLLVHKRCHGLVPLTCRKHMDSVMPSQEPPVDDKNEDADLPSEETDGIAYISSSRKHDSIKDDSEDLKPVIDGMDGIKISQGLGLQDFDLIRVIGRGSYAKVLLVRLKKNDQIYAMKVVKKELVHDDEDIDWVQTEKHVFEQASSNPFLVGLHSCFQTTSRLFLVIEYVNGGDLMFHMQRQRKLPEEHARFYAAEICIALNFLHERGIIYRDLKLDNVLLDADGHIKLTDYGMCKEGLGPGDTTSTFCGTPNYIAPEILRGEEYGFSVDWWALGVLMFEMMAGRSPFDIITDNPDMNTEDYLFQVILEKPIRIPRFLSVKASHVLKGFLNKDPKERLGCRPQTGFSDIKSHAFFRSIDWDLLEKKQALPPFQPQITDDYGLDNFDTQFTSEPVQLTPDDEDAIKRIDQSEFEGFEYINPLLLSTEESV

CLK2 (human) = CLK2 (human) (UniProt P49760)
TAOK1 (human) = TAOK1 (human) (UniProt Q7L7X3)

MAPKAPK5 (human), sequence (Q8IW41 whole entry, looked up): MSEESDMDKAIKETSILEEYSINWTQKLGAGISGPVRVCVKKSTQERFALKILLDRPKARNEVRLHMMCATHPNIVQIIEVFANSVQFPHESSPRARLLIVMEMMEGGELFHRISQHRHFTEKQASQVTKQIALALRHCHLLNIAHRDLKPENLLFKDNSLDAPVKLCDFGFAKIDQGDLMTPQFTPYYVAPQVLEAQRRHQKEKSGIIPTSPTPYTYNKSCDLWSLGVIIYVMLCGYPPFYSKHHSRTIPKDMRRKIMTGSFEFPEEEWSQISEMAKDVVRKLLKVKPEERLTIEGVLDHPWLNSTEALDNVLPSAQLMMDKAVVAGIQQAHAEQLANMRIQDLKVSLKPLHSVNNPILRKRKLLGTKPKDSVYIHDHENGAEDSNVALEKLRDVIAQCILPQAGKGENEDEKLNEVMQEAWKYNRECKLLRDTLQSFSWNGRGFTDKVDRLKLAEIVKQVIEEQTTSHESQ

With CCCC(CCC)C(=O)O the residual activity (MAPK14 (human); compound 1.0 µM) was 82%, the residual activity (MAPK14 (human); compound 10.0 µM) was 107% and the residual activity (LCK (mouse); compound 1.0 µM) was 84%. The residual activity (LCK (mouse); compound 50.0 µM) was 106%, the residual activity (FGFR1 (human); compound 10.0 µM) was 104% and the residual activity (FGFR1 (human); compound 50.0 µM) was 104%. For the same molecule, the residual activity (MAPKAPK5 (human); compound 1.0 µM) was 92%, the residual activity (MAPKAPK5 (human); compound 10.0 µM) was 91% and the residual activity (MAPKAPK5 (human); compound 50.0 µM) was 88%. The residual activity (ROCK2 (rat); compound 1.0 µM) was 84%, the residual activity (ROCK2 (rat); compound 10.0 µM) was 97% and the residual activity (ROCK2 (rat); compound 50.0 µM) was 89%. It also gave a residual activity (FLT1 (human); compound 10.0 µM) of 84%, a residual activity (FLT1 (human); compound 50.0 µM) of 89% and a residual activity (MINK1 (human); compound 10.0 µM) of 68%. It also gave a residual activity (MINK1 (human); compound 50.0 µM) of 76%, a residual activity (SRC (human); compound 1.0 µM) of 100% and a residual activity (SRC (human); compound 10.0 µM) of 87%. The residual activity (SRC (human); compound 50.0 µM) was 94%, the residual activity (GSK3B (human); compound 1.0 µM) was 74% and the residual activity (GSK3B (human); compound 10.0 µM) was 79%. The residual activity (GSK3B (human); compound 50.0 µM) was 76%, the residual activity (INSR (human); compound 10.0 µM) was 66% and the residual activity (INSR (human); compound 50.0 µM) was 77%. It also gave a residual activity (CSK (human); compound 10.0 µM) of 91%, a residual activity (CSK (human); compound 50.0 µM) of 93% and a residual activity (CAMKK2 (human); compound 10.0 µM) of 98%. It also gave a residual activity (CAMKK2 (human); compound 50.0 µM) of 104%, a residual activity (NTRK1 (human); compound 10.0 µM) of 91% and a residual activity (NTRK1 (human); compound 50.0 µM) of 89%. For the same molecule, the residual activity (EPHA2 (human); compound 10.0 µM) was 95%, the residual activity (EPHA2 (human); compound 50.0 µM) was 99% and the residual activity (MAPK15 (human); compound 1.0 µM) was 90%. It also gave a residual activity (MAPK15 (human); compound 10.0 µM) of 86%, a residual activity (MAPK15 (human); compound 50.0 µM) of 94% and a residual activity (IRAK4 (human); compound 10.0 µM) of 94%. For the same molecule, the residual activity (IRAK4 (human); compound 50.0 µM) was 99%, the residual activity (MAPK11 (human); compound 1.0 µM) was 82% and the residual activity (MAPK11 (human); compound 10.0 µM) was 91%. For the same molecule, the residual activity (MAPK11 (human); compound 50.0 µM) was 106%, the residual activity (RIPK2 (human); compound 10.0 µM) was 104% and the residual activity (RIPK2 (human); compound 50.0 µM) was 90%. The residual activity (DYRK3 (human); compound 10.0 µM) was 87%, the residual activity (DYRK3 (human); compound 50.0 µM) was 91% and the residual activity (HIPK3 (human); compound 10.0 µM) was 89%. For the same molecule, the residual activity (HIPK3 (human); compound 50.0 µM) was 97%, the residual activity (CSNK1D (human); compound 1.0 µM) was 108% and the residual activity (CSNK1D (human); compound 10.0 µM) was 107%. For the same molecule, the residual activity (CSNK1D (human); compound 50.0 µM) was 90%, the residual activity (MARK1 (human); compound 10.0 µM) was 97% and the residual activity (MARK1 (human); compound 50.0 µM) was 101%. The residual activity (RPS6KA3 KD1 KD2 (human); compound 1.0 µM) was 94%, the residual activity (RPS6KA3 KD1 KD2 (human); compound 10.0 µM) was 94% and the residual activity (RPS6KA3 KD1 KD2 (human); compound 50.0 µM) was 93%. It also gave a residual activity (MAP3K1 (human); compound 10.0 µM) of 107%, a residual activity (MAP3K1 (human); compound 50.0 µM) of 96% and a residual activity ([1]; compound 10.0 µM) of 86%. For the same molecule, the residual activity ([1]; compound 50.0 µM) was 80%, the residual activity (MAP3K7 TAB1 (human)) was 92% and the residual activity (JAK2 JH1 JH2 (human); compound 10.0 µM) was 80%. The residual activity (JAK2 JH1 JH2 (human); compound 50.0 µM) was 86%, the residual activity ([2]; compound 10.0 µM) was 84% and the residual activity ([2]; compound 50.0 µM) was 85%. For the same molecule, the residual activity (BRSK1 (human); compound 10.0 µM) was 102%, the residual activity (BRSK1 (human); compound 50.0 µM) was 124% and the residual activity (IGF1R (human); compound 10.0 µM) was 76%. It also gave a residual activity (IGF1R (human); compound 50.0 µM) of 56%, a residual activity (HIPK1 (human); compound 10.0 µM) of 84% and a residual activity (HIPK1 (human); compound 50.0 µM) of 94%. It also gave a residual activity (MELK (human); compound 10.0 µM) of 97%, a residual activity (MELK (human); compound 50.0 µM) of 92% and a residual activity (PRKCZ (human); compound 10.0 µM) of 101%. The residual activity (PRKCZ (human); compound 50.0 µM) was 93%, the residual activity (CLK2 (human); compound 10.0 µM) was 90% and the residual activity (CLK2 (human); compound 50.0 µM) was 86%. It also gave a residual activity (TAOK1 (human); compound 10.0 µM) of 93% and a residual activity (TAOK1 (human); compound 50.0 µM) of 89%.
